≈ marks a conversion by molar mass, not a printed value. Where two headings read alike, the source gives them in different places.
What was measured:
[1] = test system: Escherichia coli MG1655; experiment: Antibiotic MIC determination (serial twofold dilutions, OD600 during 17 hours at 37° C.); format: cell-based; details: Escherichia coli, 37° C.
Experimental: The Minimal Inhibitory Concentration (MIC) of the antibiotics was determined under the same culture conditions as the tests using the ATP assay kit. […] An exponentially growing culture (OD600=0.3) was added to each well (60 μl/well) of a sterile microtiter plate containing the test concentration of antibiotic (40 μl/well). The volume was completed to 120 μl with medium and OD600 nm measurements were performed using a microtiter plate reader (Infinite 200 PRO, TECAN) during 17 hours at 37° C.
In all the following experiments, the MIC values were measured for each antibiotic with parameters such as temperature, OD600 and equipment identical to those used for the bioluminescence assay.

[2] = test system: E. coli MG1655 reporter cells; format: cell-based, Escherichia coli; details: for Lag before ATP release (shortest, incompressible value): highest concentrations tested
Experimental: The classical luciferase was from Molecular Probes (ATP Determination Kit (A22066)). The thermostable luciferase was from “CheckLite AT100” (kikkoman). The Luciferin-luciferase reagents were prepared following manufacturer instructions. Bacteria from exponentially growing cultures (OD600=0.3) were added to each well (60 μl/well) of a black 96-microtiter plate (Greiner Bio-one, 655076) and 20 μl of the luciferin-luciferase reagent solution was added. The microtiter plate was incubated 5 min at 37° C. for reaction with the luciferase to eliminate traces of extracellular ATP. Then 40 μl of antibiotic solution (3 times concentrated) prepared in the culture medium were added. Bioluminescence of each well was monitored for 4 hours under shaking (218 rpm) and at 28 or 37° C., depending on the experiments (see legends of Figures). The reagent stability in presence or absence of antibiotics was checked in control experiments without bacteria but with 4 pmoles of ATP. Tests were also performed in 384-microtiter plates (Greiner Bio-one, 784076).
Aminoglycosides are bactericidal antibiotics causing translational miscoding with lethal consequences for the cell. Leakage of small molecules following an aminoglycoside shock was previously identified by different methods including radiolabelling. Therefore, the inventors investigated the response of live cells to aminoglycoside stress.

[3] = MG1655, read-out: MIC in MOPS glucose 0.4%, MOPS minimal medium glucose 0.4%
[4] = MG1655, LB medium, OD600 0.15 final, read-out: MIC in LB
[5] = antibiotic at 12.5 μg/mL, LB, 37° C.
[6] = antibiotic at 25 μg/mL, LB, 37° C.
[7] = antibiotic at 50 μg/mL, LB, 37° C.
[8] = antibiotic at 100 μg/mL, LB, 37° C.
[9] = antibiotic at 200 μg/mL, LB, 37° C.
[10] = antibiotic at 6.25 μg/mL, LB, 37° C.

In the case of `[H]/N=C(/N)N[C@H]1[C@H](O)[C@@H](O)[C@H](O[C@@H]2O[C@@H](C)[C@](O)(C=O)[C@H]2O[C@@H]2O[C@@H](CO)[C@H](O)[C@@H](O)[C@@H]2NC)[C@@H](N/C(N)=N\[H])[C@@H]1O` [Streptomycin], the MIC [1, 3] is reported as 6.25 µg/mL (≈ 10.7 µM), the MIC [1, 4] is reported as 50 µg/mL (≈ 86 µM) and the “Shape of ATP release trace” value ([2]; LB medium, 37° C., FIG. 8) is reported as “bi-phasic”. The “Lag time before ATP” value [2, 5] was 39 min, the “Lag time before ATP” value [2, 6] was 21 min and the “Lag time before ATP” value [2, 7] was 16 min. The “Lag time before ATP” value [2, 8] was 12 min, the “Lag time before ATP” value [2, 9] was 10 min and the “Lag before ATP release (shortest, incompressible value)” value (shortened to “Lag before ATP release”) ([2]; LB, 37° C.) was ~10 min.

For `NC[C@H]1O[C@H](O[C@H]2[C@H](O)[C@@H](O[C@H]3O[C@H](CO)[C@@H](O)[C@H](N)[C@H]3O)[C@H](N)C[C@@H]2N)[C@H](O)[C@@H](O)[C@@H]1O` [Kanamycin], the MIC [1, 3] was 3 µg/mL (≈ 6.19 µM), the MIC [1, 4] was 25 µg/mL (≈ 51.6 µM) and the “Lag time before ATP” value [2, 10] was 50 min. For the same compound, the “Lag time before ATP” value [2, 5] was 25 min, the “Lag time before ATP” value [2, 6] was 16 min and the “Lag time before ATP” value [2, 7] was 11 min. The “Lag time before ATP” value [2, 8] was 8 min and the “Lag before ATP release” value ([2]; LB, 37° C.) was ~4.7 min.

With `C[C@@H]1O[C@@H]1P(=O)(O)O` [Fosfomycin] the MIC [1, 3] was 100 µg/mL (≈ 724 µM), the MIC [1, 4] was 50 µg/mL (≈ 362 µM) and the “Lag time before ATP” value [2, 5] was 28.6 min. For the same compound, the “Lag time before ATP” value [2, 6] was 26.2 min, the “Lag time before ATP” value [2, 7] was 21.8 min and the “Lag time before ATP” value [2, 8] was 20.2 min. The “Lag time before ATP” value [2, 9] was 18.6 min.

For `CC[C@H]1OC(=O)[C@H](C)[C@@H](O[C@H]2C[C@@](C)(OC)[C@@H](O)[C@H](C)O2)[C@H](C)[C@@H](O[C@@H]2O[C@H](C)C[C@H](N(C)C)[C@H]2O)[C@](C)(O)C[C@@H](C)CN(C)[C@H](C)[C@@H](O)[C@]1(C)O` [Azithromycin], the MIC [1, 3] was 125 µg/mL (≈ 167 µM), the MIC [1, 4] was 175 µg/mL (≈ 234 µM) and the “High dose at which ATP release was observed” value ([2]; LB, FIG. 9) was 2.5 times the MIC. The ATP leakage ([2]; highest concentration (400 μg/mL), MOPS minimal medium (glucose 0.4%)) was “stimulated a ATP leakage”.

`O=C(N[C@H](CO)[C@H](O)c1ccc([N+](=O)[O-])cc1)C(Cl)Cl` [Chloramphenicol] was tested, and the MIC [1, 3] was 25 µg/mL (≈ 77.4 µM), the MIC [1, 4] was 25 µg/mL (≈ 77.4 µM) and the ATP leakage ([2]; high concentrations, twice or four times the MIC, LB, FIG. 9) was “important leakage”.

`CN(C)[C@@H]1C(O)=C(C(N)=O)C(=O)[C@@]2(O)C(O)=C3C(=O)c4c(O)cccc4[C@@](C)(O)[C@H]3C[C@@H]12` [Tetracycline] was tested, and the MIC [1, 3] was 12.5 µg/mL (≈ 28.1 µM), the MIC [1, 4] was 12.5 µg/mL (≈ 28.1 µM) and the “High dose at which ATP release was observed” value ([2]; LB, FIG. 9) was 4 times the MIC.

For `CC1(C)S[C@@H]2[C@H](NC(=O)[C@H](N)c3ccccc3)C(=O)N2[C@H]1C(=O)O` [Ampicillin], the MIC [1, 3] was 25 µg/mL (≈ 71.5 µM), the MIC [1, 4] was 25 µg/mL (≈ 71.5 µM) and the “Shape of ATP release trace” value ([2]; LB medium, 37° C., FIG. 8) was “multiphasic”. For the same compound, the “Intensity of ATP release signal in minimal medium compared to rich medium (factor of decrease)” value ([2]; MOPS minimal medium vs LB) was 10, the “Lag time before ATP” value [2, 10] was 108 min and the “Lag time before ATP” value [2, 5] was 43 min. For the same compound, the “Lag time before ATP” value [2, 6] was 23 min, the “Lag time before ATP” value [2, 7] was 13 min and the “Lag time before ATP” value [2, 8] was 9 min. For the same compound, the “Lag before ATP release” value ([2]; LB, 37° C.) was 9 min.

With `NCC[C@H](O)C(=O)N[C@@H]1C[C@H](N)[C@@H](O[C@H]2O[C@H](CN)[C@@H](O)[C@H](O)[C@H]2O)[C@H](O)[C@H]1O[C@H]1O[C@H](CO)[C@@H](O)[C@H](N)[C@H]1O` [Amikacin] the MIC [1, 3] was 1.56 µg/mL (≈ 2.66 µM), the MIC [1, 4] was 12.5 µg/mL (≈ 21.3 µM) and the “Shape of ATP release trace” value ([2]; LB medium, 37° C., FIG. 8) was “bi-phasic”. The “Lag time before ATP” value ([2]; antibiotic at 3.125 μg/mL, LB, 37° C.) was 42 min, the “Lag time before ATP” value [2, 10] was 31.0 min and the “Lag time before ATP” value [2, 5] was 21.6 min. The “Lag time before ATP” value [2, 6] was 16.0 min and the “Lag time before ATP” value [2, 7] was 10.5 min.

With `CN[C@@H]1[C@@H](O[C@H]2O[C@H](CO)[C@@H](N)[C@H](O)[C@H]2O)OC2C[C@@H](N)[C@@H](O[C@H]3[C@H](O)[C@@H](O)[C@H](N)C[C@@H]3N)OC2[C@@H]1O` (stereo partly shown) [Apramycin] the MIC [1, 3] was 2.5 µg/mL (≈ 4.63 µM), the MIC [1, 4] was 20.2 µg/mL (≈ 37.4 µM) and the “Shape of ATP release trace” value ([2]; LB medium, 37° C., FIG. 8) was “bi-phasic”. For the same compound, the “Shape of ATP release trace” value ([2]; MOPS minimal medium (glucose 0.4%), FIG. 11) was “monophasic”, the “Lag time before ATP” value ([2]; antibiotic at 6.75 μg/mL, LB, 37° C.) was 60.9 min and the “Lag time before ATP” value ([2]; antibiotic at 13.5 μg/mL, LB, 37° C.) was 30.0 min. The “Lag time before ATP” value ([2]; antibiotic at 27 μg/mL, LB, 37° C.) was 13.3 min, the “Lag time before ATP” value ([2]; antibiotic at 54 μg/mL, LB, 37° C.) was 10.9 min and the “Lag before ATP release” value ([2]; LB, 37° C.) was ~10.9 min.
